Results as given in patent US8148534B2, “Inhibitors of 11-beta-hydroxysteroid dehydrogenase 1” (Eli Lilly and Company, priority 2006, dated 2012).

Columns and labels:
[1] = tested on: cortisone to cortisol conversion in male C57BL/6 mice; assay: Acute In Vivo Cortisone Conversion Assay; conditions: oral dose of 10 mg/kg, cortisone challenge 30 mg/kg s.c. after 16 hours, serum cortisol
Description: Acute In Vivo Cortisone Conversion Assay
In general, compounds are dosed orally into mice, the mice are challenged with a subcutaneous injection of cortisone at a set timepoint after compound injection, and the blood of each animal is collected some time later. Separated serum is then isolated and analyzed for levels of cortisone and cortisol by LC-MS/MS, followed by calculation of mean cortisol and percent inhibition of each dosing group. Specifically, male C57BL/6 mice are obtained from Harlan Sprague Dawley at average weight of 25 grams. Exact weights are taken upon arrival and the mice randomized into groups of similar weights. Compounds are prepared in 1% w-w HEC, 0.25% w-w polysorbate 80, 0.05% w-w Dow Corning antifoam #1510-US at various doses based on assumed average weight of 25 grams. Compounds are dosed orally, 200 μl per animal, followed by a subcutaneous dose, 200 μl per animal, of 30 mg/kg cortisone at 1 to 24 hours post compound dose. At 10 minutes post cortisone challenge, each animal is euthanized for 1 minute in a CO2 chamber, followed by blood collection via cardiac puncture into serum separator tubes. Once fully clotted, tubes are spun at 2500×g, 4° C. for 15 minutes, the serum transferred to wells of 96-well plates (Corning Inc, Costar #4410, cluster tubes, 1.2 ml, polypropylene), and the plates are frozen at −20° C. until analysis by LC-MS/MS. […]

[2] = biological target: T1, 11β-HSD1 in primary human aortic smooth muscle cells (AoSMC) (Homo sapiens, UniProt P28845); assay: Human Aortic Smooth Muscle Cell Assay (cortisone to cortisol conversion); assay type: cell-based; conditions: hTNFα induced, cortisol by time resolved immunoassay
T1 construct: containing 12 ng/mL hTNFα to induce expression of 11β-HSD1; endogenous in cells; host or cells: primary human aortic smooth muscle cells (AoSMC), induced with hTNFα
Description: Human Aortic Smooth Muscle Cell Assay
Primary human aortic smooth muscle cells (AoSMC) are cultured in 5% FBS growth medium to a passage number of 6, then pelleted by centrifugation and resuspended at a density of 9×10^4 cells/mL in 0.5% FBS assay medium containing 12 ng/mL hTNFα to induce expression of 11β-HSD1. Cells are seeded into 96-well tissue culture assay plates at 100 μL/well (9×10^3 cells/well) and incubated for 48 hours at 37° C., 5% CO2. Following induction, cells are incubated for 4 hours at 37° C., 5% CO2 in assay medium containing test compounds then treated with 10 μL/well of 10 μM cortisone solubilized in assay medium, and incubated for 16 hours at 37° C., 5% CO2. Medium from each well is transferred to a plate for subsequent analysis of cortisol using a competitive fluorescence resonance time resolved immunoassay. […] Higher levels of free cortisol result in diminishing energy transfer from the Europium-IgG to the APC-cortisol complex resulting in less APC fluorescence. Fluorescent intensities for Europium and APC are measured using a LJL Analyst AD. Europium and APC […] is measured using 360 nm excitation and 615 nm and 650 nm emission filters respectively. […] Fluorescent intensities measured for APC are modified by dividing by the Eu fluorescence (APC/Eu). […]

[3] = biological target: recombinant human 11β-HSD type 1 enzyme (Homo sapiens, UniProt P28845); assay: 11-β-HSD Type 1 Enzyme Assay (NADPH fluorescence); assay type: biochemical; conditions: three hour incubation at room temperature, read-out: Human 11-βHSD1 IC50
Description: 11-β-HSD Type 1 Enzyme Assay
Human 11-β-HSD type 1 activity is measured by assaying NADPH production by fluorescence assay. Solid compounds are dissolved in DMSO to a concentration of 10 mM. Twenty microliters of each are then transferred to a column of a 96-well polypropylene Nunc plate where they are further diluted 50-fold followed by subsequent two-fold titration, ten times across the plate with additional DMSO using a Tecan Genesis 200 automated system. Plates are then transferred to a Tecan Freedom 200 system with an attached Tecan Temo 96-well head and an Ultra 384 plate reader. Reagents are supplied in 96-well polypropylene Nunc plates and are dispensed individually into black 96-well Molecular Devices High Efficiency assay plates (40 μL/well capacity) in the following fashion: 9 μL/well of substrate (2.22 mM NADP, 55.5 μM Cortisol, 10 mM Tris, 0.25% Prionex, 0.1% Triton X100), 3 μL/well of water to compound wells or 3 μL to control and standard wells, 6 μL/well recombinant human 11β-HSD type 1 enzyme, 2 μL/well of compound dilutions. […] Plates are then shaken once more for 15 seconds then placed into an Ultra 384 microplate reader (355EX/460EM) for detection of NADPH fluorescence.

T1 sequence (P28845 whole entry): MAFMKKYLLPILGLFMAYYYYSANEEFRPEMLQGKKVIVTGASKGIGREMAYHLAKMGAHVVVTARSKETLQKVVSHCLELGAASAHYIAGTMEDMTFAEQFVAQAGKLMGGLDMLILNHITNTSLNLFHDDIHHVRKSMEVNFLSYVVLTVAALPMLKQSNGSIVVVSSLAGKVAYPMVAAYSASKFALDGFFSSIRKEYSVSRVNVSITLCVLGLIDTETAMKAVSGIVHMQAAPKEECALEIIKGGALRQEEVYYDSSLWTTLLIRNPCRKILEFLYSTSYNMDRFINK
recombinant human 11β-HSD type 1 enzyme, sequence (P28845 whole entry): as above

Row | IC50 [2] [nM] | IC50 [3] [nM] | SMILES | % Inhibition after 16 hours (dose of 10 (mg/kg)) [1] [%]
1 | 16.8 |  | O=C(c1ccc(-c2cc(Cl)c(C[C@@H]3CCN(N4CCCCC4)C3=O)c(Cl)c2)cc1)N1CCC(C(F)(F)F)CC1 [Example 1, (R)-3-[3,5-Dichloro-4′-(4-trifluoromethyl-piperidine-1-carbonyl)-biphenyl-4-ylmethyl]-1-piperidin-1-yl-pyrrolidin-2-one] | 78
2 | 10.4 | 357 | O=C(c1ccc(-c2cc(Cl)c(C[C@@H]3CCN(N4CCCCC4)C3=O)c(Cl)c2)cc1)N1CCC(O)CC1 [Example 2, (R)-3-[3,5-Dichloro-4′-(4-hydroxy-piperidine-1-carbonyl)-biphenyl-4-ylmethyl]-1-piperidin-1-yl-pyrrolidin-2-one] | 
